Reference: patent US20240327334A1, “Covalent Inhibitors As Antiviral Agents” (Enanta Pharmaceuticals, Inc., priority 2022, published 2024)
Like-named read-outs stand apart in the source and are kept apart here.

Target: SARS-CoV-2 Papain-like (PLpro) protease (Severe acute respiratory syndrome coronavirus 2, UniProt P0DTD1)
Experiment: SARS-CoV-2 Papain-like (PLpro) protease biochemical enzyme inhibition assay (ubiquitin-fluorophore substrate, Ub-R110)
[1] = Ub-R110 substrate, run in duplicate, read-out: PLpro IC50

Structure (SMILES) | IC50 [1] [µM] | IC50 [µM]
N#CCNC(=O)C(=O)NCc1ccccc1C(=O)NC1(c2cc(Br)cc3ccccc23)CC1 [Example 44] | < 0.1 | –
NNC(=O)/C=C/CNC(=O)C(=O)NCc1ccccc1C(=O)NC1(c2cccc3ccccc23)CC1 [Example 553] | 0.1 to 1 | –
N#C[C@H]1CCCN1C(=O)C(=O)NCc1ccccc1C(=O)NC1(c2cccc3ccccc23)CC1 [Example 118] | > 10 | –
C#CCNC(=O)C(=O)NCc1ccccc1C(=O)NC1(c2cc(-c3nnc(C)o3)cc(-c3nnc(C)o3)c2)CC1 [Example 479] | 0.1 to 1 | –
C#CCNC(=O)C(=O)NCc1ccccc1C(=O)NC1(c2cccc3ccccc23)COC1 [Example 102] | > 10 | –
N#CCNC(=O)C(=O)NCc1ccccc1C(=O)NC1(c2cc(Cl)cc(-c3cnc(C(F)(F)F)nc3)c2)CC1 [Example 72] | 0.1 to 1 | –
C[Si](C)(C)C#CCNC(=O)C(=O)NCc1ccccc1C(=O)NC1(c2ccc3ccccc3c2)CC1 [Example 202] | – | > 10
CN(C(=O)c1cc(Cl)cc(C2(NC(=O)c3ccccc3CNC(=O)C(=O)NCC#N)CC2)c1)c1ccc(F)cc1 [Example 78] | 0.1 to 1 | –
N#CCNC(=O)C(=O)NCc1ccccc1C(=O)NC1(c2cc(-c3cn(-c4ccc(F)cc4F)nn3)cc(C(F)(F)F)c2)CC1 [Example 58] | > 10 | –
C#CCNC(=O)C(=O)NCc1ccccc1C(=O)NC1(c2cc(-c3c(C)nn(C)c3C)ccc2Cl)CC1 [Example 395] | 0.1 to 1 | –
COC(=O)/C=C/CNC(=O)C(=O)NCC1C[C@@H]1C(=O)N[C@H](C)c1cccc2ccccc12 (stereo partly drawn) [Example 20] | 1 to 10 | –
O=C(NCC#CC1CC1)C(=O)NCc1ccccc1C(=O)NC1(c2ccc3ccccc3c2)CC1 [Example 523] | > 10 | –
N#CCNC(=O)C(=O)NCc1ccccc1C(=O)NC1(c2ccc3ccccc3c2)CC1 [Example 39] | 0.1 to 1 | –
N#C[C@H]1CCN1C(=O)C(=O)NCc1ccccc1C(=O)NC1(c2cccc3ccccc23)CC1 [Example 120] | > 10 | –
COC(=O)/C=C/CNC(=O)C(=O)NCc1c(F)cc(F)cc1C(=O)N[C@H](C)c1cccc2ccccc12 [Example 30] | 0.1 to 1 | –
NC(=O)N1CC[C@@H]1CNC(=O)C(=O)NCc1ccccc1C(=O)NC1(c2cccc3ccccc23)CC1 [Example 499] | 1 to 10 | –
N#CCNC(=O)C(=O)NCc1ccccc1C(=O)NC1(c2cccc(Br)c2F)CC1 [Example 373] | 0.1 to 1 | –
C[C@@H](NC(=O)c1ccccc1CNC(=O)C(=O)NCCC#N)c1cccc2ccccc12 [Example 5] | > 10 | –
C#CCNC(=O)C(=O)NCc1ccccc1C(=O)NC1(c2cc(Oc3cccc(OC)c3)cc(C(F)(F)F)c2)CC1 [Example 63] | > 10 | –
O=C(NCC#Cc1nccs1)C(=O)NCc1ccccc1C(=O)NC1(c2ccc3ncccc3c2)CC1 [Example 389] | < 0.1 | –
COC(=O)/C=C/CNC(=O)C(=O)NCCc1ccccc1C(=O)N[C@H](C)c1cccc2ccccc12 [Example 37] | 0.1 to 1 | –
CCCOC(=O)/C=C/CNC(=O)C(=O)NCc1ccccc1C(=O)NC1(c2cccc3ccccc23)CC1 [Example 552] | 0.1 to 1 | –
C#C[C@@H](C)NC(=O)C(=O)NCc1ccccc1C(=O)NC1(c2cccc3ccccc23)CC1 [Example 157] | 1 to 10 | –
C[C@@H](NC(=O)c1ocnc1CNC(=O)C(=O)NCC#N)c1cccc2ccccc12 [Example 365] | > 10 | –

Structure (SMILES) | IC50 [1] [µM] | IC50 [µM]
C[C@@H](NC(=O)c1ccccc1CNC(=O)C(=O)NCC#N)c1cc(C(F)(F)F)nc2ccccc12 [Example 325] | > 10 | –
N#CN1CC(CCNC(=O)C(=O)NCc2ccccc2C(=O)NC2(c3cccc4ccccc34)CC2)C1 [Example 433] | 1 to 10 | –
N#CCCOC(=O)NCc1ccccc1C(=O)NC1(c2cc(Br)cc3ccccc23)CC1 [Example 420] | 1 to 10 | –
C[C@@H](NC(=O)c1ccccc1CNC(=O)C(=O)N1CCC(=O)N1)c1cccc2ccccc12 [Example 23] | > 10 | –
N#C/C=C/CCNC(=O)C(=O)NCc1ccccc1C(=O)NC1(c2ccc3c4c(cccc24)CC3)CC1 [Example 437] | 0.1 to 1 | –
COc1cc(C2(NC(=O)c3ccccc3CNC(=O)C(=O)NC[C@@H]3CCN3)CC2)cc2cn(C3CC3)nc12 [Example 512] | 1 to 10 | –
C[C@@H](C#Cc1ccc(F)cc1C#N)NC(=O)C(=O)NCc1ccccc1C(=O)NC1(c2ccc3nn(C)cc3c2)CC1 [Example 101] | 0.1 to 1 | –
C[C@@H](NC(=O)c1ccccc1CNC(=O)C(=O)NCCC(=O)C(F)(F)F)c1cccc2ccccc12 [Example 9] | 1 to 10 | –
N#CCCCNC(=O)C(=O)NCc1ccccc1C(=O)NC1(c2cccc3ccccc23)CC1 [Example 412] | 1 to 10 | –
COC(=O)/C=C/CCNC(=O)C(=O)NCC1C[C@H]1C(=O)N[C@H](C)c1cccc2ccccc12 (stereo partly drawn) [Example 17] | > 10 | –
O=C(NCC#Cc1ccc(F)cc1F)C(=O)NCc1ccccc1C(=O)NC1(c2ccc3ccccc3c2)CC1 [Example 80] | > 10 | –
N#CC1CCCN1C(=O)C(=O)NCc1ccccc1C(=O)NC1(c2cccc3ccccc23)CC1 (stereo not drawn) [Example 41] | > 10 | –
N#CCNC(=O)C(=O)NCc1ccccc1C(=O)NC1(c2ccnc3c2ccn3C2CC2)CC1 [Example 406] | < 0.1 | –
CC#CCNC(=O)C(=O)NCc1ccccc1C(=O)NC1(c2cccc3ccccc23)CC1 [Example 150] | 1 to 10 | –
CCOP(=O)(/C=C/CCNC(=O)C(=O)NCc1ccccc1C(=O)N[C@H](C)c1cccc2ccccc12)OCC [Example 12] | – | > 10
Cc1nnc(-c2cc(Cl)cc(C3(NC(=O)c4ccccc4CNC(=O)C(=O)NCC#N)CC3)c2)o1 [Example 483] | 0.1 to 1 | –
C[C@@H](NC(=O)c1ccccc1CNC(=O)C(=O)NCC/C=C/P(=O)(O)O)c1cccc2ccccc12 [Example 13] | > 10 | –
NC(=O)N1CCC[C@H]1CNC(=O)C(=O)NCc1ccccc1C(=O)NC1(c2cccc3ccccc23)CC1 [Example 505] | 1 to 10 | –
N#CCNC(=O)C(=O)NCc1ccccc1C(=O)NC1(c2cc(-c3cnn(C4CC4)c3)nc3[nH]ccc23)CC1 [Example 414] | 0.1 to 1 | –
C[C@@H](C#Cc1ccc(Cl)cc1C#N)NC(=O)C(=O)NCc1ccccc1C(=O)NC1(c2ccc3nn(C)cc3c2)CC1 [Example 113] | < 0.1 | –
C#CCNC(=O)C(=O)NCc1ccccc1C(=O)NC1(c2cccc3ccccc23)CC1 [Example 32] | < 0.1 | –
O=C(NC/C=C/c1cnccn1)C(=O)NCc1ccccc1C(=O)NC1(c2ccc3ccccc3c2)CC1 [Example 580] | 0.1 to 1 | –
COC(=O)/C=C/CNC(=O)C(=O)N(C)Cc1ccccc1C(=O)N[C@H](C)c1cccc2ccccc12 [Example 547] | > 10 | –
C#CCNC(=O)C(=O)NCc1ccccc1C(=O)NC1(c2cc(-c3cn(-c4ccc(F)cc4F)nn3)cc(C(F)(F)F)c2)CC1 [Example 57] | 1 to 10 | –

Structure (SMILES) | IC50 [1] [µM] | IC50 [µM]
C=CCNC(=O)C(=O)NCc1ccccc1C(=O)NC1(c2ccc3ccccc3c2)CC1 [Example 497] | > 10 | –
N#CCNC(=O)C(=O)NCc1ccccc1C(=O)NC1(c2ccnc3ccccc23)CC1 [Example 407] | < 0.1 | –
C#C[C@H](C)NC(=O)C(=O)NCc1ccccc1C(=O)NC1(c2ccc3ccccc3c2)CC1 [Example 164] | 1 to 10 | –
CCOc1cccnc1C#CC1(NC(=O)C(=O)NCc2ccccc2C(=O)NC2(c3ccc4ccccc4c3)CC2)CC1 [Example 203] | > 10 | –
C#CCNC(=O)C(=O)NCc1ccccc1C(=O)NC1(c2ccc3ncccc3c2)CC1 [Example 388] | < 0.1 | –
N#CCNC(=O)C(=O)NCc1ccccc1C(=O)NC1(c2cc(Oc3cccc(C(F)(F)F)c3)cc(C(F)(F)F)c2)CC1 [Example 66] | > 10 | –
C[C@@H](C#Cc1ncccc1C(F)(F)F)NC(=O)C(=O)NCc1ccccc1C(=O)NC1(c2cc(F)cc(-c3cnn(C4CC4)c3)c2)CC1 [Example 142] | 0.1 to 1 | –
O=C(C#CCNC(=O)C(=O)NCc1ccccc1C(=O)NC1(c2ccc3ccccc3c2)CC1)Nc1ccccc1 [Example 521] | 0.1 to 1 | –
COCC(C)(C)NC(=O)/C=C/CNC(=O)C(=O)NCc1ccccc1C(=O)N[C@H](C)c1cccc2ccccc12 [Example 565] | 1 to 10 | –
N#CCNC(=O)C(=O)NCc1ccccc1C(=O)NC1(c2cc(C(F)(F)F)ccc2F)CC1 [Example 371] | 1 to 10 | –
C#CCNC(=O)C(=O)NCc1ccccc1C(=O)NC1(c2cccc3c2ccn3C)CC1 [Example 530] | 0.1 to 1 | –
Cn1ccc(C#CCNC(=O)C(=O)NCc2ccccc2C(=O)NC2(c3ccc4ccccc4c3)CC2)n1 [Example 397] | 0.1 to 1 | –
COC(=O)/C=C/CNC(=O)C(=O)NC(C)c1ccccc1C(=O)N[C@H](C)c1cccc2ccccc12 (stereo partly drawn) [Example 52] | 1 to 10 | –
CC(C)(C)OC(=O)N1CC[C@@H](CNC(=O)C(=O)NCc2ccccc2C(=O)NC2(c3cccc4ccccc34)CC2)C1 [Example 507] | > 10 | –
C[C@@H](NC(=O)c1ccccc1CNC(=O)C(=O)NC/C=C/C(=O)NC(C)(C)CO)c1cccc2ccccc12 [Example 551] | 1 to 10 | –
N#CCNC(=O)C(=O)NCc1ccccc1C(=O)NC1(c2c[nH]c3ncccc23)CC1 [Example 408] | < 0.1 | –
COC(=O)/C=C/CNC(=O)C(=O)Nc1ccccc1C(=O)N[C@H](C)c1cccc2ccccc12 [Example 11] | > 10 | –
COC(=O)/C=C/CNC(=O)C(=O)NCc1ccccc1C(=O)NC1(c2ccc3ccccc3c2)CC1 [Example 43] | < 0.1 | –
N#CN1CCC[C@H]1CC(=O)NCc1ccccc1C(=O)NC1(c2cc(Br)cc3ccccc23)CC1 [Example 316] | 0.1 to 1 | –
N#CCNC(=O)C(=O)NCc1ccccc1C(=O)NC1(c2cccc(C(F)(F)F)c2F)CC1 [Example 376] | 0.1 to 1 | –
CC(C)(O)/C=C/c1cc(C2(NC(=O)c3ccccc3CNC(=O)C(=O)NCC#N)CC2)c2ccccc2c1 [Example 422] | < 0.1 | –
O=C(NCc1ccccc1C(=O)NC1(c2ccc(F)c3ccccc23)CC1)C(=O)N[C@@H]1CNC1=O [Example 123] | > 10 | –
N#CCNC(=O)C(=O)N1Cc2cccc(C(=O)NC3(c4cc(Br)cc5ccccc45)CC3)c2C1 [Example 315] | 1 to 10 | –
Cc1nnc(-c2cc(-c3nnc(C)o3)cc(C3(NC(=O)c4ccccc4CNC(=O)C(=O)NCC#N)CC3)c2)o1 [Example 478] | 0.1 to 1 | –
